Key:
Assay type in all cases: in vivo, mouse
[1] = test system: Stab wound model mice; experiment: Stab wound model: Evans Blue dye leakage to the injured site; conditions: for leakage of the dye to the injured site: Stab wound model mice, Evans Blue after 2 days
Experimental: Degree of injury was quantified by a dye leakage (Evans Blue) to the injured site (Kakimura Y, et al., Nature Medicine, 4:1078-1080, 1998). After 2 days from injury, the maximum value was noted and, after that, it lowered as a result of recovery (refer to FIG. 20).
An effect of BW A868C or ramatroban ((±)-(3R)-3-(4-fluorobenzenesulfonamide)-1,2,3,4-tetrahydrocarbazol-9-propionic acid) which is an antagonist for prostaglandin D receptor to Stab wound model mice was evaluated using leakage amount of dye to the injured site as an index. Thus, Evans Blue dye was intravenously administered after 2 days from occurrence of brain injury and the amount of leakage of the dye to the tissue during 2 hours thereafter was measured. When BW A868C (1 mg/kg) was intravenously administered after 3 hours and after one day from occurrence of the brain injury, leakage of the dye to the injured site was suppressed (refer to FIG. 27).
An effect of pinagladin which is a DP receptor antagonist to a Stab wound model was evaluated by a leakage amount of dye to the injured site. Thus, Evans Blue was intravenously injected on the second day after occurrence of brain injury and leakage amount of the dye into the tissue during 2 hours thereafter was measured. As a result, when pinagladin (10 mg/kg) was orally administered before 1 hour and after one day of the occurrence of the injury, an increase in leakage amount of Evans Blue dye noted as a result of brain injury was suppressed (refer to FIG. 24).

[2] = test system: Stab wound model mice; experiment: Stab wound model of traumatic brain injury: recovery / progress of brain injury (histology)
[3] = test system: DP receptor; experiment: Stab wound model: DP receptor mRNA in tissue injury region; conditions: oral 30 mg/kg/day for 4 days from one hour before injuring
[4] = test system: Twitcher mice; experiment: Twitcher mice (hereditary demyelinating disease): astroglia activation and DP receptor expression; conditions: subcutaneous 30 mg/kg/day for 14 days
Source text: Changes in mRNA of H-PGDS and DP receptor as a result of demyelination were quantified by a quantitative RT-PCR method using a model mouse Twitcher of human Krabbe diseases which is a disease where galactosylceramidase is deficient (Kobayashi T, et al., Brain Res., 202:479-483, 1980; Duchen L W, et al., Brain, 103:695-710, 1980; Sakai N, et al., J. Neurochem., 66:1118-1124, 1996; Taniike M et al., J. Neuropathol. Exp. Neurol., 58:644-653, 1999) (refer to FIG. 1). Expression of mRNA of both H-PGDS and DP receptor increased as a result of demyelination.
HQL-79 (4-benzhydryloxy-1-{3-(1H-tetrazol-5-yl)-propyl}piperidine) which is an H-PGDS inhibitor was subcutaneously administered to Twitcher mice at the dose of 30 mg/kg/day for 14 days whereupon activation of astroglia cells was suppressed and, at the same time, expression of DP receptor in astroglia cells lowered (refer to FIG. 13).

[5] = traumatic brain injury, administration started after 24 hours from injury

O=C(O)CCCCCCC1C(=O)N(Cc2ccccc2)C(=O)N1NCC(O)C1CCCCC1 (racemic) [BW A868C, (±)-3-benzyl-5-(6-carboxyhexyl)-1-(2-cyclohexyl-2-hydroxyethylamino)-hydantoin]
leakage of the dye to the injured site ([1]; 1 mg/kg intravenous after 3 hours and after one day from injury, leakage during 2 hours): suppressed | recovery of brain injury ([2]; Stab wound model mice, intravenous 1 mg/kg/day for 4 days from the initial day of injury): promotion of recovery

c1ccc(C(OC2CCN(CCCc3nnn[nH]3)CC2)c2ccccc2)cc1 [HQL-79, 4-benzhydryloxy-1-{3-(1H-tetrazol-5-yl)-propyl}piperidine]
amount of mRNA of DP receptor in tissue injury region [3]: lowered | leakage reaction of dye to the injured site ([1]; Stab wound model, oral 30 mg/kg/day, administration started one hour before injury): therapeutic effect was also confirmed | tissue injury (leakage of dye) [1, 5]: inhibitory effect | activation of astroglia cells [4]: suppressed | expression of DP receptor in astroglia cells [4]: lowered | recovery of brain injury ([2]; Stab wound model, oral 30 mg/kg/day for 4 days from one hour before injuring): promotion of recovery | tissue injury (expansion of injury) [2, 5]: inhibitory effect

CC1(C)[C@H]2C[C@H](C/C=C\CCCC(=O)O)[C@@H](NC(=O)c3csc4ccccc34)[C@@H]1C2 [pinagladin, (Z)-7-[(1R,2R,3S,5S)-2-(benzo[b]-thiophene-3-ylcarbonylamino)-10-norpinan-3-yl]hepta-5-enoic acid]
increase in leakage amount of Evans Blue dye as a result of brain injury ([1]; Stab wound model, 10 mg/kg oral before 1 hour and after one day of injury, Evans Blue on second day, leakage during 2 hours): suppressed | progress of brain injury (histopathological investigation) ([2]; Stab wound model, in any of administration routes): suppressed the progress of brain injury

O=C(O)CCn1c2c(c3ccccc31)C[C@H](NS(=O)(=O)c1ccc(F)cc1)CC2 [ramatroban, (+)-(3R)-3-(4-fluorobenzenesulfonamide)-1,2,3,4-tetrahydrocarbazol-9-propionic acid]
leakage of the dye to the injured site ([1]; 30 mg/kg oral after 3 hours and after one day from injury, leakage during 2 hours): suppressed

— patent US20050222235A1, “Drugs for improving the prognosis of brain injury and a method of screening the same” (priority 2002, published 2005)
